Source: patent US20230226007A1, “NANOPARTICULATE COMPOSITION” (Algiax Pharmaceuticals GmbH, priority 2020, published 2023)

Assay: Solubility of AP-325 in different solvents at ambient temperature
Assay type: physicochemical
Source text: AP-325 is a pharmaceutical agent, which is currently in clinical development. […] For a better characterization of active ingredients with low solubility, a classification according to the BCS system (=Biopharmaceutics Classification System) was introduced (Guidance for Industry: Immediate release solid oral dosage forms and FDA, 1995). This BCS system distinguishes four categories based on the solubility and permeability of the active substance. At a pH value of below 7 AP-325 can be classified as a BCS class II drug substance. The low solubility of AP-325 negatively affects the absorption into the body after oral administration due to a limited absorption of the active agent in the small intestine (such as the jejunum or ileum), which is an essential absorption window for the uptake of a drug. Consequently, the therapeutic effect cannot be achieved.
FIG. 3: Solubility of AP-325 in different solvents at ambient temperature.

BCS classification (pH value of below 7): BCS class II
Solubility (physiological pH of 6.8 (phosphate buffer), ambient temperature): practically insoluble
Compound: Cc1cc(NC(=O)/C(C#N)=C(\O)C2CC2)ccc1C(F)(F)F [AP-325]
